Earlier results as cited in publication PMC11767697, “Radiocobalt-Labeling of a Polypyridylamine Chelate Conjugated to GE11 for EGFR-Targeted Theranostics” (Molecules, 2025).

Conditions: Co(II) complex
Protocol: The promising therapeutic properties of the AEE, ^58mCo (T1/2 = 9.1 h), have been theoretically predicted and confirmed by in vitro and in vivo experiments using PSMA and octreotide conjugates of DOTA [[2],[11 ...

Row | stability (binding) constant Log(β) (comparable conditions) | stability constant Log(β) | SMILES
1 | 16.1 | – | O=C([O-])CN(CCN(CC(=O)[O-])CC(=O)[O-])CC(=O)[O-].[Co+2] [[Co^II(EDTA)]^2-]
2 | – | 16.6 | [Co+2].c1ccc(CN(CCN(Cc2ccccn2)Cc2ccccn2)Cc2ccccn2)nc1 [[Co^II(TPEN)]^2+]
